A short description of test [1]: Interleukin-1-Beta-Induced Tumor Necrosis Factor Alpha Release by Human Macrophages. The format is cell-based. As to conditions: Macrophage; recombinant human IL-1β 20 ng/mL; compound 1 h before stimulation; supernatants after 24 h, ELISA; read-out: IC50 (IL-1β-induced TNFα release). On the procedure:
(§1) The compounds of Formula I inhibit IL-1 action. One mechanism for inhibiting IL-1 action is to inhibit IL-1 production. Inhibition of IL-1 production was tested using lipopolysaccharide (LPS) stimulated macrophages. Inhibition of IL-1 induced production of cytokines was tested by measuring the inhibition of TNFα (tumor necrosis factor alpha) synthesis from IL-1 stimulated macrophages. The protocols for these test procedures are described below.
Interleukin-1-Beta-Induced Tumor Necrosis Factor Alpha Release by Human Macrophages
To determine the inhibitory concentrations for the test compounds against interleukin-1 beta (IL-1β)-induced tumor necrosis factor alpha (TNFα) release by human peripheral blood monocyte-derived macrophages. It should be understood that this is a test of the ability of the test compounds to modulate, i.e. inhibit, the activity of IL-1β by measuring the inhibition of IL-1β induced release of TNFα.
Source Human Peripheral Blood Monocyte-Derived Macrophages:
Venous blood is collected form healthy volunteers in 10 mM sodium citrate (2 mL sterile sodium citrate for 40 mL blood). Mononuclear cells are isolated with the Leucoprep tubes (Becton Dickinson, product number 2752 or 2751) spun at 1500 g for fifteen minutes. Aliquots of 3×10^6 mononuclear cells are added to 24-well tissue culture plates (Corning) in RPMI-1640. After 1 hour incubation at 37° C., non-adherent cells are gently rinsed off. The adherent cells (macrophages) are given back fresh medium RPMI-1640, 1 mL/well.
Macrophage monolayer cultures are pretreated with compounds one hour prior to IL-1β (20 ng/mL, recombinant human IL-1β) stimulation. Compounds dissolved in 95% ethanol or DMSO would require additional monolayer cultures treated with 10 or 2.5 μl 95% ethanol or DMSO, respectively. Culture supernatants are collected 24 hours later and are tested for TNF-α using a commercial ELISA kit (Cistron).
The TNF-α concentration in the culture supernatant is calculated by a standard curve generated from a series of known concentrations. Potency of compound is reported in IC50 (UM).

The subject of test [2] is interleukin-1 beta (IL-1β) release (production) by human peripheral blood monocyte-derived macrophages. The test is described as follows: Endotoxin-Induced Interleukin-1 Beta Release by Human Macrophages. The format is cell-based. As to conditions: Macrophage, endotoxin 20 ng/mL (Salmonella typhimurium Re-mutant), compound 1 h before stimulation, supernatants after 24 h, ELISA. As for the experimental part: as §1
Endotoxin-Induced Interleukin-1 Beta Release by Human Macrophages
The objective of this test is to determine the inhibitory concentrations for the test compounds against endotoxin-induced interleukin-1 beta (IL-1β) release (production) by human peripheral blood monocyte-derived macrophages.
The source of the human peripheral blood monocyte-derived macrophages is as follows:
Venous blood is collected from healthy volunteers in 10 mM sodium citrate (2 mL sterile sodium citrate for 40 mL blood). Mononuclear cells are isolated with the Leucoprep tubes (Becton Dickenson, product number 2752 or 2751) spun at 1500 g for 15 minutes. Aliquots of 3×10^6 mononuclear cells are added to 24-well tissue culture plates (Corning) in RPMI-1640. After one hour incubation at 37° C., non-adherent cells are gently rinsed off. […]
The IL-1β concentration in the culture supernatant is calculated by a standard curve generated from a series of known concentrations. […]

In the next test the test system is IL-1 production. As to conditions: cited from earlier work.
For test [3] the following is noted: mammal having an arthritic condition; U.S. Pat. No. 5,122,534; cited from earlier work.

Results on four compounds are retold here after patent US5684017A, “Benzenesulfonylimine derivatives as inhibitors of IL-1 action” (Merrell Pharmaceuticals Inc., priority 1996, dated 1997).

`O=C(c1ccccc1)c1cc(=NS(=O)(=O)c2ccccc2)c2ccccc2o1` [2-Benzoyl-4-benzenesulfonylimino-4H-chromene]: the IC50 in test [1] turned out to be 1300 nM.

Regarding `CC(=O)c1cc(=NS(=O)(=O)c2ccccc2)c2c(Cl)cc(Cl)cc2[nH]1` [5,7-Dichloro-2-acetyl-4-[benzenesulfonylimino]-1,4-dihydroquinoline], the IC50 is 4000 nM in test [2] and 8000 nM in test [1].

On to `O=C(c1ccccc1)c1cc(=NS(=O)(=O)c2ccccc2)c2c(Cl)cc(Cl)cc2[nH]1` [5,7-Dichloro-2-benzoyl-4-[benzenesulfonylimino]-1,4-dihydroquinoline], for which the IC50 was 2000 nM in test [2] and 3000 nM in test [1].

With `NC(=O)N1C(=O)/C(=C(\O)c2cccs2)c2cc(Cl)ccc21` [Tenidap], the “block IL-1 production” value with IL-1 production is recorded as “known to block IL-1 production”. In test [3], the “serum LDL cholesterol” value is given as “reduces”, the serum triglycerides result is on record as “reduces” and the “total level of serum cholesterol” value is listed as “reduces”.

One may read the IC50 as the midpoint of a concentration-inhibition curve.
